Data published in patent US20260275319A1, “ARCHAEAL PEPTIDE RECOMBINASE – A NOVEL PEPTIDE LIGATING ENZYME” (MAX-PLANCK-GESELLSCHAFT ZUR FÖRDERUNG DER WISSENSCHAFTEN …, priority 2019, published 2026).

Legend:
[1] = biological target: M. jannaschii Adriase^S1A; details: MST, 25° C., 10 nM FITC peptide, three independent measurements
Method: MST measurements were performed with a Monolith NT.115 (Nanotemper), using various MST power and laser intensity settings to test the general validity of the obtained data. The final results were obtained in three independent experiments and measured at a temperature of 25° C., using MST power 80% and laser intensity 40%.
In a second set of MST experiments, a more detailed analysis of the binding motif (FIG. 18A-F and table in FIG. 5B) was performed using synthetic peptides (Genscript) based on the M. jannaschii MtrA sequence. […] For the MST measurements, 10 nM of these peptides were mixed with a serial dilution of M. jannaschii Adriase^S1A and the experiment was otherwise performed as described for the M. jannaschii MtrA^Δ194-245-Adriase^S1A and the M. jannaschii MtrA^Δ174-245 Adriase^S1A interactions, above.

M. mazei Adriase = assay: Ligation motif analysis with primary and secondary substrates; type: biochemical; details: 25 μM substrates, 400× molar excess over Adriase, 50° C.

Sequence of M. jannaschii Adriase^S1A (as listed by the source): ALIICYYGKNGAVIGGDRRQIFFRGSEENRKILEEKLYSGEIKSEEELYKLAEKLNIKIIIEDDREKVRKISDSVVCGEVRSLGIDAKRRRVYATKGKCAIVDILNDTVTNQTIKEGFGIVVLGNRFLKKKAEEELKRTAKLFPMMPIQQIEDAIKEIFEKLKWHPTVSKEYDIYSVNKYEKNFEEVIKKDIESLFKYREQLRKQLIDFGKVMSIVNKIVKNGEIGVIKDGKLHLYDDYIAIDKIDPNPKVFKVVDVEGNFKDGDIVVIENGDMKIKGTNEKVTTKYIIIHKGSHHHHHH

| Sequence | KD [1] | Adriase activity with substrate (M. mazei Adriase) |
| --- | --- | --- |
| KECLSKDPGAIDEDPFIIELKFITC [(5)KDPGA(10)] | as tightly as M. jannaschii MtrA^Δ194-245 | – |
| PGAFDADP (Methanosarcina mazei Go1; M. mazei PGA(5); listed as Methanosarcina mazei) [M. mazei MtrA-derived secondary substrate peptide] | – | No Adriase activity |
